Laboratory results reported in patent US20210212960A1, “IDENTIFICATION OF SEIZURE SUSCEPTIBILITY REGION IN WOLF-HIRSCHHORN SYNDROME AND TREATMENT THEREOF” (Lineagen, Inc., priority 2016, published 2021).

Legend:
[1] = system: seizures in Dravet patients; details: cited from earlier work; for effectiveness of seizure treatment: individuals with Dravet syndrome
[2] = system: seizures in individuals with WHS; assay: Online survey of 4p-Support Group parents: seizure control outcome by seizure treatment in WHS (Example 5); format: in vivo, human; details: for Seizure control outcome: Complete control, Percent / Seizure control outcome: Less than 50% reduction, Percent / Seizure control outcome: No change, Percent / Seizure control outcome: ≥50% reduction, Percent / Seizure control outcome: Increased number of seizure, Percent: percent of users of the medication
From the text: This study and all recruitment materials were approved by the University of Utah IRB (IRB_00064655). The cohort for this study was recruited from the 4p-Support Group, which is comprised of parents and caretakers of individuals with WHS. Inclusion criteria were: 1) a genetic diagnosis of WHS and 2) at least one seizure treatment had been used for seizure control. An invitation to participate in the survey was sent out to all members of the 4p-Support Group email list (representing approximately 300 individuals with WHS) and posted on the 4p-Support Group's Facebook page. Individuals self-identifying as a parent or caretaker of an individual with WHS and a history of seizures, who had tried at least one seizure treatment, were invited to participate. The invitation described the purpose of the study and provided a link to the online survey.
The survey was developed by expanding the seizure history and treatment sections of a previous survey used by Ho et al (J Med Genet 2016; 53:256-263). The online survey was hosted by the HIPAA-compliant platform, RedCAP, and consisted of four sections. The first section collected general demographic information about the individual with WHS. Two additional questions were added to confirm whether the individual had genetic testing to confirm the diagnosis of WHS and ascertain which type of genetic testing had been completed. The second section focused on seizure history. This included age of onset, types of seizures, seizure duration, status epilepticus (seizures lasting longer than 30 minutes), and whether the individual still experiences seizures or is seizure free. The third section asked about antiepileptic drugs (AEDs) used for seizure treatment. Participants were asked to list each AED or combination of AEDs tried in chronological order. For each AED or combination of AEDs participants were asked about duration, effect on number of seizures, side effects, and reasons for discontinuing that AED or combination of AEDs. There were also questions about whether the individual was on a ketogenic diet or using cannabis oil during that time. Space for additional comments about each AED or combination of AEDs tried was also provided. The fourth section contained questions about use of ketogenic diet or cannabis oil while in the absence of AEDs. Again participants were asked about duration, effect on number of seizures, side effects, and reasons for discontinuing. In the case of cannabis oil use, participants were asked to specify whether pure cannabis oil or a THC mixture was used.
The levels of seizure control outcome were grouped into five categories: increased number of seizure, no change, less than 50% reduction, >50% reduction, and complete control.
When a medication was used multiple times (or when looking at combined medication), the seizure control outcome was scored as the best response among all of them. The most frequently used 5 medications reported in this cohort are phenobarbital, diazepam, lamotrigine, valproic acid (sodium valproate) and levetiracetam. We used frequency and percentages to describe the seizure control outcome of these five medications. The Kruskal-Wallis test was performed to evaluate the level of seizure control achieved with these five medications. The Wilcoxon rank sum test was performed to evaluate the hypothesis of the different seizure control outcomes between carbamazepine and levetiracetam. Comparison of the seizure control outcome based on whether levetiracetam was used first or later, was performed by the Cochran Armitage test. Statistical analysis was conducted using SAS 9.4 (SAS Inc., N.C.).

[3] = system: seizures in individuals with WHS; assay: Parent-reported responses to seizure medications, questionnaire of the 48-individual WHS cohort (Example 1); format: in vivo, human; details: n users per drug; for Negative reports: number of unprompted parent reports of a negative reaction causing stop of the drug or no control over seizures; for Positive reports: number of unprompted parent reports of significant and observable increase in control over seizures
From the text: This questionnaire captures the health, medical profile, developmental history, and treatment responses of individuals with WHS. For the present study, the focus was on the presence or absence of seizures, age of seizure onset, types of seizures, antiepileptic drugs (AEDs) used and responses to these AEDs, as well as responses to the ketogenic diet. For cases with incomplete, contradictory or unclear parental responses, medical records of patients were consulted. When available medical records were also incomplete, ‘no answer’ is indicated in the relevant text and tables.
AED responses were scored as negative if the patients' parents reported a negative reaction (allergic reaction or other) without prompting that caused them to stop using that drug, or if the drug conferred no control over seizures.

[4] = system: seizures in patients with 15q Duplication syndrome; details: cited from earlier work
[5] = system: seizures of this subtype of CDG; details: subtype of CDG caused by genes functioning like PIGG; cited from earlier work
[6] = system: seizures in individuals with WHS and with Dravet syndrome; details: individuals with WHS as well as individuals with Dravet syndrome; cited from earlier work
[7] = levetiracetam used as first AED (n = 31)
[8] = levetiracetam used later in treatment (n = 27)

Structure (SMILES) | Seizure control outcome: Complete control, Percent [2] | Seizure control outcome: Less than 50% reduction, Percent [2] | Seizure control outcome: No change, Percent [2] | Seizure control outcome: ≥50% reduction, Percent [2] | Negative reports [3] | Positive reports [3] | response to seizure treatment [4] | also measured
CCCC(CCC)C(=O)O [Valproic acid] | 50% | 9.38% | 9.38% | 31.25% | 2 | 2 | generally responded well | effectiveness of seizure treatment [1]: most effective
CC[C@@H](C(N)=O)N1CCCC1=O [Levetiracetam] | 56.9% | 8.62% | 5.17% | 29.31% | 1 | 4 | generally responded well | Complete control, First use, % [2, 7]: 61.29%; Less than 50% reduction, First use, % [2, 7]: 3.23%; No change, First use, % [2, 7]: 3.23%; ≥50% reduction, First use, % [2, 7]: 32.26%; Complete control, Later use, % [2, 8]: 51.85%; Less than 50% reduction, Later use, % [2, 8]: 14.81%; No change, Later use, % [2, 8]: 7.41%; ≥50% reduction, Later use, % [2, 8]: 25.93%
CCC1(c2ccccc2)C(=O)NC(=O)NC1=O [Phenobarbital] | 61.11% | 11.11% | 13.89% | 11.11% | 5 | 0 |  | Seizure control outcome: Increased number of seizure, Percent [2]: 2.78%
Cc1ncc(CO)c(CO)c1O.Cl [Vitamin B6] |  |  |  |  |  |  |  | efficacy in treating seizures [5]: efficacious
Br [bromide] |  |  |  |  |  |  |  | effectiveness of seizure treatment [1]: most effective
CN1C(=O)CN=C(c2ccccc2)c2cc(Cl)ccc21 [Diazepam] | 31.25% | 6.25% | 25% | 37.5% |  |  |  | 
NC(=O)N1c2ccccc2C=Cc2ccccc21 [Carbamazepine] | 18.18% | 18.18% | 27.27% | 9.09% |  |  | generally responded well | aggravates seizures, share of Dravet patients ([1]; Dravet syndrome): 20%; no benefit, share of Dravet patients ([1]; Dravet syndrome): 78%; Seizure control outcome: Increased number of seizure, Percent [2]: 27.27%; effect on seizures [6]: exacerbate seizures
Nc1nnc(-c2cccc(Cl)c2Cl)c(N)n1 [Lamotrigine] | 31.25% | 6.25% | 12.5% | 50% |  |  |  | effect on seizures [6]: exacerbate seizures
CC1(C)O[C@@H]2[C@@H](CO[C@@]3(COS(N)(=O)=O)OC(C)(C)O[C@@H]23)O1 [Topiramate] |  |  |  |  | 4 | 1 |  | 
